According to ChEMBL document CHEMBL3621073, “Bile acid amphiphiles with tunable head groups as highly selective antitubercular agents” (Medchemcomm, 2014):
Activity calls are given as the source filed them. The calls are words filed in the database; no cut-off is given here.

Columns and labels:
[1] = system: Escherichia coli; assay: Antibacterial activity against Escherichia coli MTCC 443 assessed as membrane surface indentations by atomic force microscopic analysis; type: functional, organism-based
[2] = system: Mycobacterium tuberculosis; assay: Antimycobacterial activity against Mycobacterium tuberculosis H37Rv after 14 days by inverted microscopic analysis; type: functional; details: 336 h
[3] = system: Lipid bilayer; assay: Binding affinity to PE:PG:LPS membrane assessed as dehydration of membrane after 4 hrs
[4] = system: Lipid bilayer; assay: Binding affinity to PE:PG:TDM membrane assessed as dehydration of membrane after 4 hrs
[5] = system: Staphylococcus aureus; assay: Antibacterial activity against Staphylococcus aureus MTCC 737 assessed as effect on membrane permeabilization by using propidium iodide dye; type: functional, organism-based
[6] = system: A549; assay: Cytotoxicity against human A549 cells assessed as effect on cell cycle phase at 100 uM by propidium iodide staining-based flow cytometry; details: a549, 100 µM
[7] = Therapeutic index, ratio of MHC50 for chicken RBC to MIC99 for Mycobacterium tuberculosis H37Rv; details: chicken red blood cells, read-out: TI
[8] = system: A549; assay: Cytotoxicity against human A549 cells after 48 hrs by MTT assay; type: cell-based; details: A549, 48 h
[9] = system: Staphylococcus aureus; assay: Antibacterial activity against Staphylococcus aureus MTCC 737 after 12 hrs by microplate reader assay; type: functional; details: MTCC 737, 12 h
[10] = system: Escherichia coli; assay: Antibacterial activity against Escherichia coli MTCC 443 assessed as leakage of large amount of cytoplasmic contents by atomic force microscopic analysis; type: functional, organism-based
[11] = Binding affinity to PE:PG membrane assessed as membrane fluidity after 4 hrs
[12] = system: Escherichia coli; assay: Antibacterial activity against Escherichia coli MTCC 443 measured after 1 to 24 hrs by microplate reader assay; type: functional, organism-based
[13] = system: Escherichia coli; assay: Antibacterial activity against Escherichia coli MTCC 443 after 12 hrs by microplate reader assay; type: functional; details: MTCC 443, 12 h
[14] = system: Escherichia coli; assay: Antibacterial activity against Escherichia coli MTCC 443 assessed as effect on membrane permeabilization by using propidium iodide dye; type: functional, organism-based
[15] = system: Lipid bilayer; assay: Binding affinity to PE:PG:LPS membrane assessed as membrane fluidity after 4 hrs
[16] = system: Staphylococcus aureus; assay: Antibacterial activity against Staphylococcus aureus MTCC 737 after 12 hrs by microplate reader assay in presence of EDTA; type: functional, organism-based
[17] = system: Lipid bilayer; assay: Binding affinity to PE:PG:TDM membrane assessed as membrane fluidity after 4 hrs
[18] = system: Mycolicibacterium smegmatis; assay: Antimycobacterial activity against Mycobacterium smegmatis str. MC2 155 after 2 days by inverted microscopic analysis; type: functional; details: str. MC2 155, 48 h
[19] = system: Escherichia coli; assay: Antibacterial activity against Escherichia coli MTCC 443 after 12 hrs by microplate reader assay in presence of EDTA; type: functional, organism-based
[20] = Binding affinity to PE:PG membrane assessed as dehydration of membrane after 4 hrs
[21] = Therapeutic index, ratio of MHC50 for sheep RBC to MIC99 for Mycobacterium tuberculosis H37Rv; details: sheep red blood cells, read-out: TI
[22] = system: Escherichia coli; assay: Antibacterial activity against Escherichia coli MTCC 443 assessed as micelle-like structures by atomic force microscopic analysis; type: functional, organism-based
[23] = system: Mycolicibacterium smegmatis; assay: Antimycobacterial activity against Mycobacterium smegmatis str. MC2 155 after 6 to 96 hrs by inverted microscopic analysis relative to control; type: functional
[24] = system: THP-1; assay: Cytotoxicity against human THP1 cells after 48 hrs by MTT assay; type: cell-based; details: THP-1, 48 h
[25] = system: Staphylococcus aureus; assay: Antibacterial activity against Staphylococcus aureus MTCC 737 measured after 1 to 24 hrs by microplate reader assay; type: functional, organism-based
[26] = system: Escherichia coli; assay: Antibacterial activity against Escherichia coli MTCC 443 assessed as effect membrane topology by atomic force microscopic analysis; type: functional, organism-based
[27] = system: Mycobacterium tuberculosis; assay: Antimycobacterial activity against Mycobacterium tuberculosis H37Rv after 14 days by inverted microscopic analysis in presence of plasma; type: functional; details: 336 h
[28] = system: Escherichia coli; assay: Antibacterial activity against Escherichia coli MTCC 443 at 8 to 128 uM measured after 1 to 24 hrs by microplate reader assay; type: functional, organism-based
[29] = system: Mycolicibacterium smegmatis; assay: Antimycobacterial activity against Mycobacterium smegmatis str. MC2 155 assessed as effect on […] by using propidium iodide dye; type: functional, organism-based
[30] = system: Escherichia coli; assay: Antibacterial activity against Escherichia coli MTCC 443 assessed as effect membrane morphology by atomic force microscopic analysis; type: functional, organism-based
[31] = system: Staphylococcus aureus; assay: Antibacterial activity against Staphylococcus aureus MTCC 737 at 16 to 256 uM measured after 1 to 24 hrs by microplate reader assay; type: functional, organism-based
[32] = system: Mycolicibacterium smegmatis; assay: Antimycobacterial activity against Mycobacterium smegmatis str. MC2 155 after 2 days by inverted microscopic analysis in presence of plasma; type: functional; details: str. MC2 155, 48 h

Row | SMILES | MIC99 [2] | Activity [4] | Activity [6] | selectivity ratio [7] | IC50 [8] | MIC99 [9] | Activity [11] | MIC99 [13] | Activity [15] | Activity [16] | Activity [17] | MIC99 [18] | Activity [19] | selectivity ratio [21] | IC50 [24] | also measured
1 | COC(=O)CC[C@@H](C)[C@H]1CC[C@H]2[C@@H]3[C@H](OC(=O)CN)C[C@@H]4C[C@H](OC(=O)CN)CC[C@]4(C)[C@H]3C[C@H](OC(=O)CN)[C@]12C.Cl.Cl.Cl | > 50 µM | Active | Non-toxic | < 20 | 75.9 µM | 64 µM | inactive | 32 µM | inactive | Active | inactive | > 50 µM | Active | < 20 | 38.2 µM | Activity [1]: Active; Activity [3]: Active; Activity [5]: Active; Activity [10]: Active; Activity [12]: Dose-dependent effect; Activity [14]: Active; Activity [20]: Active; Activity [22]: Active; Activity [23]: inactive; Activity [25]: Dose-dependent effect
2 | COC(=O)CC[C@@H](C)[C@H]1CC[C@H]2[C@@H]3[C@H](OC(=O)C[n+]4ccc(N(C)C)cc4)C[C@@H]4C[C@H](OC(=O)C[n+]5ccc(N(C)C)cc5)CC[C@]4(C)[C@H]3C[C@H](OC(=O)C[n+]3ccc(N(C)C)cc3)[C@]12C.[Cl-].[Cl-].[Cl-] | 6.25 µM | inactive | Non-toxic | > 160 | > 200 µM | 256 µM | inactive | > 512 µM | inactive | Active | Active | 1.56 µM | Active | > 160 | > 200 µM | Activity [26]: inactive; MIC99 [27]: 6.25 µM; Activity [28]: inactive; Activity [29]: Active; Activity [30]: inactive; Activity [31]: inactive; fold change (FC) [23]: 10000; MIC99 [32]: 6.25 µM
